Several values for one entry are separate records, joined by “and”; a condition that tells them apart may be missing. Equal values may be shown once.

The subject of one assay is radish hypocotyls. In words: Radish hypocotyl bioassay for anthocyanins. The format is in vivo, Raphanus sativus L. cv. Cherry-Belle. The method, then: Radish hypocotyl bioassay for anthocyanins. An anthocyanin bioassay was developed using intact germinated seeds of radish (Raphanus sativus L. cv. Cherry-Belle). Seeds of radish were germinated in darkness at 25° C. for 40 hours in Petri dishes containing filter paper wetted with distilled water. Whole seedlings were transferred to Petri dishes containing the test solutions in potassium phosphate buffer (2 mM, pH 6.0 containing 0.2 mg/L kinetin to simulate natural growing conditions). The seedlings were incubated under bright light for 28 h prior to extraction of hypocotyl tissue and spectrophotometric quantification of anthocyanins. Anthocyanin content was determined spectrophotometrically after tissue extraction into 99 parts ethanol and 1 part concentrated HCl. The absorbance of the acidic ethanol fraction was measured at 510 nm and the final anthocyanin content calculated using an extinction coefficient of 31.76 mmol cm^−1 for raphanisuns (Ishikura N. and Hayashi K. Chromatographic separation and characterization of the component anthocyanins in radish root. Botanical Magazine Tokyo 76:6-13, 1963, which is herein incorporated by reference in its entirety).

The test system of assay [1] is radish cotyledons. In words: Radish cotyledon bioassay (kinetin-induced expansion growth and chlorophyll content). The format is in vivo, Raphanus sativus L. cv. Cherry-Belle. The following applies: for Type of hormone-like activity: radish cotyledon bioassay. The method, then:
Radish cotyledon bioassay. The radish cotyledon bioassay was essentially as described by Letham D S (1971) Physiologia Plantarum 25:391-396, which is herein incorporated by reference in its entirety. Seeds of Raphanus sativus L. cv. Cherry-Belle were germinated in darkness at 25° C. for 36 hours in Petri dishes containing filter paper wetted with distilled water. The smaller of the two cotyledons was excised, the fresh weight determined, and 10 cotyledons placed adaxial side down on filter paper in Petri dishes containing potassium phosphate buffer (2 mM, pH 6.0) with kinetin (0.2 mg/L, added to simulate natural growing conditions) and the compounds to be tested at 20 mg/L. Cotyledons were then incubated under continuous illumination up to 72 hours at 25° C. and the increase in fresh weight determined. Chlorophyll content was determined after extraction of tissue into 80% ethanol (containing butylated hydroxytoluene, 10 mg/L) and quantified spectrophotometrically using the equations Chl a=(13.95A663)−(6.88A647) and Chl b=(24.96A652)−(7.32A663) as described by Lichtenthal H K (1987) Methods in Enzymology 148:350-382, which is herein incorporated by reference in its entirety.

For assay [2], the system named is Hydroponic tomatoes (var. Trust). In words: Color impact on tomato (greenhouse spray). The format is in vivo. The protocol:
The color impact of NALPE-2 on tomato. Hydroponic tomatoes (var. Trust) in a commercial greenhouse located in Arena, Wis. were treated with NALPE-2 (50 mg/L) using a hand pump spray bottle. Five tomato clusters each with 3-5 fruit in the early ripening stages (breaker) were used. The clusters were sprayed such that little overspray left the immediate area as to not contaminate other vines. Ambient conditions in the greenhouse at the time of application were about 75° F. and 70% relative humidity, full sun. Drying time was approximately 0.5 hr. Fruit were harvested after 7 days and transported to the laboratory for visual color comparison.

For another assay, the system named is Bolivian Rainbow Peppers. In words: Color impact on hot pepper (greenhouse). It counts as in vivo. The protocol:
The color impact of NALPE-2 on hot pepper. Potted ornamental peppers (var. Bolivian Rainbow Peppers) in laboratory greenhouses located in Middleton, Wis. were treated with NALPE-2 (50 mg/L). […] 40-50 fruits were tagged and labeled. The pepper color stage was noted prior to application and two plants were used. Ambient conditions in the greenhouse at the time of application were about 80° F. and 70% relative humidity. Drying time was approximately 0.5 hr. After 14 days the peppers were harvested and color group sorting was performed.

Assay [3] concerns radish cotyledons. In words: Radish cotyledon bioassay (kinetin-induced expansion growth and chlorophyll content). The format is in vivo, Raphanus sativus L. cv. Cherry-Belle. The settings on record: kinetin 0.2 mg/l, 72 hours; for Change in fresh weight: n = 9.
Setting [4] is: NALPE-2 50 mg/L applied 7 days prior to harvest, tomatoes.
The mark [5] stands for this setting: NALPE-2 50 mg/L applied 14 days prior to harvest, Bolivian Rainbow Peppers.
Where [6] appears, read: NAPE-2 20 mg/L, kinetin 0.2 mg/l, 72 hours.

As to “N-acetyl lysophosphatidylethanolamine [NALPE-2]”, the Anthocyanin with radish hypocotyls (NALPE-2 15 mg/l, kinetin 0.2 mg/l, 25° C., 28 hours, n = 4) was 2.637 ± 0.005 μg/hypocotyl. Besides, in the assay with radish hypocotyls (NALPE-2 15 mg/l, kinetin 0.2 mg/l, 28 hours), the “Anthocyanin, % of control” value is given as 125 % of control. Besides, the “Effect on anthocyanin pigment in radish hypocotyls” value with radish hypocotyls (summary of Table 3) is given as “enhanced the amount of anthocyanin pigment”. Also, in the assay on radish cotyledons [1] (NALPE-2 20 mg/l, kinetin 0.2 mg/l, 72 hours), the “Change in fresh weight, % of control” value is recorded as 66 % of control. The “Change in fresh weight” value with radish cotyledons [1] (NALPE-2 20 mg/l, kinetin 0.2 mg/l, 72 hours, n = 9) was 9.88 ± 4.93 mg. The “Effect on expansion growth of radish cotyledons” value in the assay on radish cotyledons [1] (Table 2, dependent upon concentration) was “inhibitory activity”. In addition, the “Type of hormone-like activity” value in the assay with radish cotyledons [1] is reported as “ethylene-like activity”. In assay [2] (setting [4]), the “Color Stage Light Red” value turned out to be 17%; the “Color Stage Others (breaker, turning, and pink stage)” value amounted to 16%; the “Color Stage Red” value is listed as 67%. Besides, in assay [2] (text summary of Table 4), the “Effect on color development in tomatoes” value is given as “accelerated color development”. For the same substance, in the assay with Bolivian Rainbow Peppers (setting [5]), the “Color Stage Blue” value turned out to be 22%, the “Color Stage Orange” value was 20%, the “Color Stage Purple” value is listed as 19% and the “Color Stage Red” value was 32%. For the same substance, the “Color Stage Yellow” value with Bolivian Rainbow Peppers (setting [5]) was determined as 6%. In addition, the “Effect on color development in hot peppers” value with Bolivian Rainbow Peppers (Table 5) is “accelerated color development”. Moreover, in the assay with radish cotyledons [3] (NALPE-2 0.2 mg/l), the “Change in fresh weight, % of control” value is recorded as 92 % of control and the “Change in fresh weight” value was 13.68 ± 4.79 mg. For the same substance, in the assay with radish cotyledons [3] (NALPE-2 200 mg/l), the “Change in fresh weight, % of control” value is listed as 58 % of control and the “Change in fresh weight” value worked out at 8.64 ± 5.46 mg.
Consider “N-acetylphosphatidylethanolamine [NAPE-2]”, for which, in the assay on radish cotyledons [1], the “Effect on total amount of chlorophyll during radish cotyledon expansion” value is “did not change the total amount of chlorophyll” and the “Type of hormone-like activity” value is recorded as “cytokinin-like activity”. In the assay with radish cotyledons [1] (NAPE-2 20 mg/L, kinetin 0.2 mg/l, 2 mM PB pH 6.0, 25° C., 72 hours, n = 3), the “Change in fresh weight” value was 18.90 ± 1.74 mg and 21.37 ± 1.09 mg and 22.52 ± 3.42 mg. For the same substance, in the assay with radish cotyledons [1] (setting [6]), the “Change in fresh weight, % of control” value was 110 % of control and 108 % of control; the Chlorophyll a/b was found to be 1.82. The “Increase of cotyledon fresh weight” value in the assay with radish cotyledons [1] (summary of Table 1) is “about 10%”.

Source of the values: patent publication US20050221987A1, “Use of certain phospholipids to deliver hormonal effects to plants” (priority 2004, published 2005).
